Measurements: US6110939A, “(Benzimidazolyl- and imidazopyridinyl) containing 1-(1,2-disubstituted piperidinyl) derivatives” (Janssen Pharmaceutica N.V., priority 1995, dated 2000)

Test system: substance P induced relaxation of the pig coronary arteries
Experiment: Antagonism of substance P induced relaxation of the pig coronary arteries
Type: cell-based
Settings: response to 10^-9 M substance P, 30 min incubation; for inhibition at 0.003 µM: test compound 3 × 10^-9
Method: Antagonism of substance P induced relaxation of the pig coronary arteries
Segments of coronary arteries taken from pigs (killed by injection of an overdose of sodium pentobarbital) were inverted and mounted for recording of isometric tension in organ baths (volume 20 ml) with the endothelium at the outside. The preparations were bathed in Krebs - Henseleit solution. The solution was kept at 37° C. and gassed with a mixture of O2 /CO2 (95/5). After stabilisation of the preparations, prostaglandin F2α (10^-5 M) was administered to induce a contraction. This was repeated until contractile responses became stable. Then prostaglandin F2α was again administered and substance P (3×10^-10 M and 10^-9 M cumulatively) was added. […] After washing away the agonists, a known concentration of a compound of formula (I) was added. After an incubation period of 30 minutes, prostaglandin F2α (10^-5 M) and the same concentrations of substance P as described above were again administered in the presence of the compound to be tested.

Row | Structure (SMILES) | inhibition at 0.003 µM (Sus scrofa, 0.5 h) [%] | other results
1 | O=C(c1cc(C(F)(F)F)cc(C(F)(F)F)c1)N1CC[C@@H](N2CCC(Cc3nc4ccccc4n3Cc3ccc(F)cc3)CC2)C[C@@H]1Cc1ccccc1 (relative stereo) [Compound 33] | 56.8 | –
2 | Cc1ncc(Cn2c(NC3CCN([C@H]4CCN(C(=O)c5cc(C(F)(F)F)cc(C(F)(F)F)c5)[C@@H](Cc5ccccc5)C4)CC3)nc3ccccc32)o1 (relative stereo) [Compound 15] | – | inhibition at 0.03 µM (Sus scrofa, 0.5 h, test compound 3 × 10^-8): 84.6%
3 | CCOCCn1c(NC2CCN(C3CCN(C(=O)c4cc(C(F)(F)F)cc(C(F)(F)F)c4)C(Cc4ccccc4)C3)C(Cc3ccccc3)C2)nc2ccccc21 (stereo not drawn) [Compound 13, 2α,4α-trans-1-[3,5-bis(trifluoromethyl)benzoyl]-4-[4-[[1-(2-ethoxyethyl)-1H-benzimidazol-2-yl]amino]-2-(phenylmethyl)-1-piperidinyl]-2-(phenylmethyl)piperidine] | – | % inhibition (test compound 3 × 10^-8): 19.9%
4 | Cc1ncc(Cn2c(N[C@@H]3CCN(C(=O)c4ccc5ccccc5c4)[C@@H](Cc4ccccc4)C3)nc3ccccc32)o1 (relative stereo) [Compound 45] | 13.1 | –
